Where two headings read alike, the source gives them in different places.
Legend:
HPK1 = HPK1 (Homo sapiens, UniProt Q92918); assay: HPK1 Biochemical Assay (ADP-Glo luminescence; low ATP 10 μM or high ATP 200 μM)
[1] = test system: p-SLP-76 (Ser376) in Jurkat cells; assay: pSLP76 Cellular Assay (AlphaLISA SureFire Ultra p-SLP-76 (Ser376), anti-CD3 activated Jurkat cells); assay type: cell-based; details: read-out: Cellular Potency
Method: pSLP76 cellular assay was performed using Jurkat cells and the AlphaLISA SureFire Ultra p-SLP-76 (Ser376) Assay Kit (PerkinElmer). Dose-response assays were performed in Greiner® Low Volume 384-well assay plates containing 200 nL of 22 serial 2-fold compound dilutions using Bravo and Echo. Jurkat cells were grown in RPMI-1640 supplemented with 10% FBS and PSG. The day prior to the assay, the cells were collected, and serum starved overnight in Opti-MEM. The day of the assay, the cells were collected and resuspended in HBSS. 100,000 cells/well were added to the compound plates and after a short spin, the plates were incubated at 37° C. for 1 h. The cells were activated by adding 10 μL of 0.025 mg/ml anti-CD3. Plates were then incubated at 37° C. for 45 min. Stimulation was terminated by adding […], followed by a brief centrifugation and 60 min of shaking at 300 rpm. Cell lysates (10 μL) were transferred to 384-well White Opti-plates and the samples were processed according to the manufacturer's directions. The fluorescence signal from pSLP76 was measured at 570 nm using Envision plate reader. IC50 values were determined by fitting the data to a standard 4-parameter logistic equation. The results are summarized in the Cellular Potency columns in Tables 4 and 5 below (Cellular Potency).

[2] = HPK1 ADP-Glo assay, high ATP (200 μM ATP, 5 nM HPK1), read-out: Biochemical Potency (high ATP)
[3] = Homo sapiens, pSLP76 (Ser376) AlphaLISA, anti-CD3 activated Jurkat cells
[4] = HPK1 ADP-Glo assay, low ATP (10 μM ATP, 2 nM HPK1), read-out: Biochemical Potency (low ATP)
[5] = 2 nM HPK1, 10 μM ATP, read-out: Biochemical Potency (low ATP)
[6] = Homo sapiens, Jurkat cells, anti-CD3 stimulation, pSLP76

HPK1, sequence (Q92918 whole entry, species assumed): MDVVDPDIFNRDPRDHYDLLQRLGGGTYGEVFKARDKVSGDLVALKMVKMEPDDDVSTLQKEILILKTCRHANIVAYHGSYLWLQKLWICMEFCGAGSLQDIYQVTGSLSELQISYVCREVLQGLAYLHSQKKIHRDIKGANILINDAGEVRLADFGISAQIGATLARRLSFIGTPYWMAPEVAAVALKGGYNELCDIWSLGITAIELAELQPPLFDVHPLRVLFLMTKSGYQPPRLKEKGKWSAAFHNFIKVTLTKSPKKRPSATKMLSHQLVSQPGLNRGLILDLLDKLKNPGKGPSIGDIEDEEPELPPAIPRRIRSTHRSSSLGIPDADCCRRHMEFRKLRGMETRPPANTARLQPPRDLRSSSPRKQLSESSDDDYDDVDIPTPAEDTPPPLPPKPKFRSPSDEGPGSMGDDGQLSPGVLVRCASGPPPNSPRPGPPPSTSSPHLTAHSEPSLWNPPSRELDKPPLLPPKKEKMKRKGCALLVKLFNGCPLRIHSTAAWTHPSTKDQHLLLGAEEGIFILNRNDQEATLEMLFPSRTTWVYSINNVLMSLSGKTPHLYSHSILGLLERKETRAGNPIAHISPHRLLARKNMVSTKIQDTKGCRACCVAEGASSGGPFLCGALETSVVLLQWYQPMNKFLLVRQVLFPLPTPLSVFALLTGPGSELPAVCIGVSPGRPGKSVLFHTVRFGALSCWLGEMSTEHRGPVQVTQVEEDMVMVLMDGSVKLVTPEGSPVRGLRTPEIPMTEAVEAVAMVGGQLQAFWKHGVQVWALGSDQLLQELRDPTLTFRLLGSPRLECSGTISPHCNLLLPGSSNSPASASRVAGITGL

Structure (SMILES)	IC50 [1, 3] [nM]	IC50 (HPK1; [5]) [nM]	other results
Cc1cc(Nc2cc3nc(-c4cccc(C(=O)N(C)C)c4F)sc3cn2)nc(N2C[C@@H]3C[C@H]2CN3C)n1 [Example 399]	100 to 1000	–	IC50 (HPK1; [2]): < 100 nM
Cc1cc(Nc2cc3nc(-c4cccc(C(=O)N(C)[C@H]5CCOC5)c4)sc3cn2)nc(N2C[C@@H]3C[C@H]2CN3CCO)n1 [Example 555]	< 100	–	IC50 (HPK1; [2]): < 100 nM
CCN1C[C@@H]2C[C@H]1CN2c1nc(Nc2cc3nc(-c4cnn(C)c4)sc3cn2)ccc1F [Example 322]	100 to 1000	–	IC50 (HPK1; [2]): < 100 nM
Cc1c(-c2nc3cc(Nc4ccc(N5CCOCC5)c(CN5CCCC5)n4)ncc3s2)cnc2c1NCCO2 [Example 27, N-(2-{8-Methyl-1H,2H,3H-pyrido[2,3-b][1,4]oxazin-7-yl}-[1,3]thiazolo[5,4-c]pyridin-6-yl)-5-(morpholin-4-yl)-6-[(pyrrolidin-1-yl)methyl]pyridin-2-amine]	–	< 100	IC50 [1, 6]: 100 to 1000 nM
CN1C[C@@H]2C[C@H]1CN2c1nccc(Nc2cc3nc(-c4ccnc(N5CC[C@@H](O)C5)c4)sc3cn2)n1 [Example 464]	–	–	IC50 (HPK1; [4]): < 100 nM; IC50 ([1]; pSLP76 (Ser376) AlphaLISA, anti-CD3 activated Jurkat cells): 100 to 1000 nM
CCN1C[C@@H]2C[C@H]1CN2c1nc(C)cc(Nc2cc3nc(-c4cccc(C(=O)N(C)C5CCN(S(C)(=O)=O)CC5)c4)sc3cn2)n1 [Example 311, N-(1-mesyl-4-piperidyl)-N-methylm-[6-(2-{(1S,4S)-5-ethyl-2,5-diazabicyclo[2.2.1]hept-2-yl}-6-methyl-4-pyrimidinylamino)-3-thia-1,5-diaza-2-indenyl]benzamide]	100 to 1000	–	IC50 (HPK1; [2]): < 100 nM
CN(C)Cc1nc(Nc2cc3nc(-c4c(F)cccc4F)sc3cn2)ccc1C1CCOC1 (stereo not drawn) [Example 257, N-[2-(2,6-Difluorophenyl)-[1,3]thiazolo[5,4-c]pyridin-6-yl]-6-[(dimethylamino)methyl]-5-(oxolan-3-yl)pyridin-2-amine]	–	< 100	IC50 [1, 6]: 1000 to 5000 nM
Cc1cccnc1-c1nc2cc(Nc3cnc(C)c(N4C[C@@H]5C[C@H]4CN5)n3)ncc2s1 [Example 148, 6-[(1S,4S)-2,5-Diazabicyclo[2.2.1]heptan-2-yl]-5-methyl-N-[2-(3-methylpyridin-2-yl)-[1,3]thiazolo[5,4-c]pyridin-6-yl]pyrazin-2-amine]	–	< 100	IC50 [1, 6]: < 100 nM
Cc1ccc(Nc2cc3nc(-c4ncccc4C)sc3cn2)nc1OC[C@H](N)C(C)(C)C [Example 180, 6-[(2R)-2-Amino-3,3-dimethylbutoxy]-5-methyl-N-[2-(3-methylpyridin-2-yl)-[1,3]thiazolo[5,4-c]pyridin-6-yl]pyridin-2-amine]	–	–	IC50 [1, 6]: > 5000 nM
CN1C[C@@H]2C[C@H]1CN2c1cccc(Nc2cc3nc(-c4cccc(S(C)(=O)=O)c4)sc3cn2)n1 [Example 136, N-[2-(3-Methanesulfonylphenyl)-[1,3]thiazolo[5,4-c]pyridin-6-yl]-6-[(1S,4S)-5-methyl-2,5-diazabicyclo[2.2.1]heptan-2-yl]pyridin-2-amine]	–	–	IC50 [1, 6]: 100 to 1000 nM
c1cc(C2CCOCC2)c(CN2CCCC2)nc1Nc1cc2nc(N3CCCCC3)sc2cn1 [Example 232, 5-(Oxan-4-yl)-N-[2-(piperidin-1-yl)-[1,3]thiazolo[5,4-c]pyridin-6-yl]-6-[(pyrrolidin-1-yl)methyl]pyridin-2-amine]	–	< 100	–
CN(C)S(=O)(=O)c1cccc(-c2nc3cc(Nc4cccc(N5C[C@@H]6C[C@H]5CN6)n4)ncc3s2)c1 [Example 325]	–	–	IC50 (HPK1; [4]): < 100 nM
CN1C[C@@H]2C[C@H]1CN2c1nccc(Nc2cc3nc(-c4ncco4)sc3cn2)n1 [Example 420]	–	–	IC50 (HPK1; [4]): < 100 nM
CN1C[C@@H]2C[C@H]1CN2c1nccc(Nc2cc3nc(-c4ccnc(N5CC[C@H](F)C5)c4)sc3cn2)n1 [Example 463]	–	–	IC50 (HPK1; [4]): < 100 nM
CN1C[C@@H]2C[C@H]1CN2c1nccc(Nc2cc3nc(-c4ccnc(N5CC[C@@H](O)C5)c4)sc3cn2)n1 [Example 465]	–	–	IC50 (HPK1; [4]): < 100 nM
Cc1cccnc1-c1nc2cc(Nc3ccc(C4CCOCC4)c(N4C[C@@H]5C[C@H]4CN5)n3)ncc2s1 [Example 246, 6-[(1S,4S)-2,5-Diazabicyclo[2.2.1]heptan-2-yl]-N-[2-(3-methylpyridin-2-yl)-[1,3]thiazolo[5,4-c]pyridin-6-yl]-5-(oxan-4-yl)pyridin-2-amine]	–	< 100	–

The next lines start with results.

IC50 [1, 3] [nM]	IC50 (HPK1; [5]) [nM]	Structure (SMILES)	other results
100 to 1000	–	CCN1C[C@@H]2C[C@H]1CN2c1nc(C)cc(Nc2cc3nc(-c4cccc(C(=O)N5CCC6(CCOC6)C5)c4)sc3cn2)n1 (stereo partly drawn) [Example 530]	IC50 (HPK1; [2]): < 100 nM
100 to 1000	–	CN1C[C@@H]2C[C@H]1CN2c1nccc(Nc2cc3nc(-c4cccc(S(=O)(=O)N(C)C)c4)sc3cn2)n1 [Example 415]	IC50 (HPK1; [4]): < 100 nM
100 to 1000	–	Cc1cc(Nc2cc3nc(-c4cccnc4)sc3cn2)nc(N2C[C@@H]3C[C@H]2CN3Cc2ccccc2)n1 [Example 490]	IC50 (HPK1; [2]): < 100 nM
1000 to 5000	–	Cc1cc(Nc2cc3nc(-c4cccc(C(=O)N(C)C)c4)sc3cn2)nc(N2C[C@@H]3C[C@H]2CN3C2CCN(S(C)(=O)=O)CC2)n1 [Example 331]	IC50 (HPK1; [2]): 100 to 1000 nM
1000 to 5000	–	CN1C[C@@H]2C[C@H]1CN2c1cncc(Nc2cc3nc(-c4cccc(S(=O)(=O)N(C)C)c4)sc3cn2)n1 [Example 414]	IC50 (HPK1; [4]): < 100 nM
100 to 1000	–	Cc1cc(Nc2cc3nc(-c4cccc(C(=O)N(C)CC5CCOC5)c4)sc3cn2)nc(N2C[C@@H]3C[C@H]2CN3CCO)n1 (stereo partly drawn) [Example 557]	–
100 to 1000	–	Cc1cc(Nc2cc3nc(-c4cccc(C(=O)N(C)C5CCOC5)c4)sc3cn2)nc(N2C[C@@H]3C[C@H]2CN3CCO)n1 (stereo partly drawn) [Example 559]	–
< 100	–	Cc1cc(Nc2cc3nc(-c4cccc(C(=O)N(C)C5CCCOC5)c4)sc3cn2)nc(N2C[C@@H]3C[C@H]2CN3CCO)n1 (stereo partly drawn) [Example 542]	–
–	< 100	Cc1ccncc1-c1nc2cc(Nc3ccc(C)c(O[C@H]4CCNC4)n3)ncc2s1 [Example 173, 5-Methyl-N-[2-(4-methylpyridin-3-yl)-[1,3]thiazolo[5,4-c]pyridin-6-yl]-6-[(3S)-pyrrolidin-3-yloxy]pyridin-2-amine]	–
–	< 100	Cc1cccnc1-c1nc2cc(Nc3cccc(N4C[C@H]5C[C@@H]4CN5C)n3)ncc2s1 [Example 91, 6-[(1R,4R)-5-Methyl-2,5-diazabicyclo[2.2.1]heptan-2-yl]-N-[2-(3-methylpyridin-2-yl)-[1,3]thiazolo[5,4-c]pyridin-6-yl]pyridin-2-amine]	–
–	100 to 1000	Cc1cccnc1-c1nc2cc(Nc3cccc(N4CCN(C)C[C@H]4C)n3)ncc2s1 [Example 103, 6-[(2R)-2,4-Dimethylpiperazin-1-yl]-N-[2-(3-methylpyridin-2-yl)-[1,3]thiazolo[5,4-c]pyridin-6-yl]pyridin-2-amine]	–
–	100 to 1000	C[C@@H]1CCCN1c1nc2cc(Nc3ccc(C4CCOCC4)c(CN4CCCC4)n3)ncc2s1 [Example 229, N-{2-[(2R)-2-Methylpyrrolidin-1-yl]-[1,3]thiazolo[5,4-c]pyridin-6-yl}-5-(oxan-4-yl)-6-[(pyrrolidin-1-yl)methyl]pyridin-2-amine]	–
–	< 100	Cc1cccnc1-c1nc2cc(Nc3ccc(C4CCOCC4)c(CN[C@@H]4CCOC4)n3)ncc2s1 [Example 215, N-[2-(3-Methylpyridin-2-yl)-[1,3]thiazolo[5,4-c]pyridin-6-yl]-5-(oxan-4-yl)-6-({[(3R)-oxolan-3-yl]amino}methyl)pyridin-2-amine]	–
–	< 100	CN1C[C@@H]2C[C@H]1CN2c1cncc(Nc2cc3nc(-c4ncco4)sc3cn2)n1 [Example 156, 6-[(1S,4S)-5-Methyl-2,5-diazabicyclo[2.2.1]heptan-2-yl]-N-[2-(1,3-oxazol-2-yl)-[1,3]thiazolo[5,4-c]pyridin-6-yl]pyrazin-2-amine]	–
–	< 100	CCNCc1nc(Nc2cc3nc(-c4c(C)cccc4F)sc3cn2)ccc1N1CCC(F)(F)C1 [Example 279, 5-(3,3-Difluoropyrrolidin-1-yl)-6-[(ethylamino)methyl]-N-[2-(2-fluoro-6-methylphenyl)-[1,3]thiazolo[5,4-c]pyridin-6-yl]pyridin-2-amine]	–
–	< 100	CS(=O)(=O)Nc1cccc(-c2nc3cc(Nc4cccc(N5C[C@@H]6C[C@H]5CN6)n4)ncc3s2)c1 [Example 287, N-{3-[6-({6-[(1S,4S)-2,5-diazabicyclo[2.2.1]heptan-2-yl]pyridin-2-yl}amino)-[1,3]thiazolo[5,4-c]pyridin-2-yl]phenyl}methanesulfonamide]	–

Source: patent US12649751B2 (Arcus Biosciences, Inc., priority 2022, dated 2026)
